The values that follow come from US20070293514A1, “Triazolopyrimidines” (priority 2003, published 2007).

Structures are written as SMILES.

The term chromatographic logP denotes lipophilicity estimated from chromatographic retention. A higher chromatographic logP goes with a more lipophilic compound. One may read the logP as the decadic logarithm of the partition coefficient of the neutral form, usually between octanol and water.

A short description of this series: logP by HPLC (EEC Directive 79/831 Annex V. A8, gradient method). It is filed as physicochemical. The conditions noted are these: acetonitrile/0.1% aqueous phosphoric acid.
In the case of `CCC(C)c1c(Cl)nc2ncnn2c1Cl` (stereo not drawn) [5,7-dichloro-6-sec-butyl[1,2,4]triazolo[1,5-a]pyrimidine], the chromatographic logP is 2.4.

On to `CCC(C)c1c(O)n2ncnc2[nH]c1=O` (stereo not drawn) [6-sec-butyl-7-hydroxy[1,2,4]triazolo[1,5-a]pyrimidin-5(4H)-one], for which the chromatographic logP was 0.7.

In turn, `C[Si](C)(C)CNc1c(-c2ccc(F)cc2Cl)c(Cl)nc2ncnn12` [Example 1] had a chromatographic logP of 3.61.

`CC(Nc1c(-c2c(F)cc(F)cc2F)c(Cl)nc2ncnn12)[Si](C)(C)C` (stereo not drawn) [Example 2] registered a chromatographic logP of 3.71.

`C[Si](C)(C)CNc1c(-c2c(F)cccc2Cl)c(Cl)nc2ncnn12` [Example 3] gave a logP of 3.43.

Compound `C[Si](C)(C)CNc1c(-c2c(F)cc(F)cc2F)c(Cl)nc2ncnn12` [Example 4] showed a chromatographic logP of 3.39.

Take `CC(Nc1c(-c2c(F)cccc2Cl)c(Cl)nc2ncnn12)[Si](C)(C)C` (stereo not drawn) [Example 5]: the log partition coefficient (logP) turned out to be 3.79.

With `CC(Nc1c(-c2ccc(F)cc2Cl)c(Cl)nc2ncnn12)[Si](C)(C)C` (stereo not drawn) [Example 6], the logP amounted to 3.95.

`CC(Nc1c(-c2ccccc2Cl)c(Cl)nc2ncnn12)[Si](C)(C)C` (stereo not drawn) [Example 7] came in with a logP of 3.83.

Turning to `CC(C)c1nc2nc(Cl)c(-c3ncc(C(F)(F)F)cc3Cl)c(NC[Si](C)(C)C)n2n1` [Example 8], the log partition coefficient (logP) came to 4.51.

In turn, `CC(C)c1nc2nc(Cl)c(-c3ncncc3F)c(NC(C)[Si](C)(C)C)n2n1` (stereo not drawn) [Example 9] registered a logP of 3.61.

For the compound `CC(Nc1c(-c2ncccc2C(F)(F)F)c(Cl)nc2ncnn12)[Si](C)(C)C` (stereo not drawn) [Example 10], the log partition coefficient (logP) came out at 3.06.

As to `CC(Nc1c(-c2c(F)cccc2Cl)c(Cl)nc2nc(C3CC3)nn12)[Si](C)(C)C` (stereo not drawn) [Example 11], the logP worked out at 4.65.

`C[Si](C)(C)CNc1c(-c2c(F)cccc2Cl)c(Cl)nc2nc(C3CC3)nn12` [Example 12] yielded a logP of 4.22.

In turn, `C[Si](C)(C)CNc1c(-c2cc(F)ccc2F)c(Cl)nc2nc(C3CC3)nn12` [Example 13] registered a chromatographic logP of 3.99.

`CC(Nc1c(-c2cc(F)ccc2F)c(Cl)nc2nc(C3CC3)nn12)[Si](C)(C)C` (stereo not drawn) [Example 14] displayed a chromatographic logP of 4.35.

`CC(C)c1nc2nc(Cl)c(-c3cc(F)ccc3F)c(NC(C)[Si](C)(C)C)n2n1` (stereo not drawn) [Example 15] returned a chromatographic logP of 4.58.

`CC(C)c1nc2nc(Cl)c(-c3cc(F)ccc3F)c(NC[Si](C)(C)C)n2n1` [Example 16] came in with a chromatographic logP of 4.21.

`Cc1nc2nc(Cl)c(-c3cc(F)ccc3F)c(NC(C)[Si](C)(C)C)n2n1` (stereo not drawn) [Example 17] yielded a chromatographic logP of 3.73.

Compound `Cc1nc2nc(Cl)c(-c3cc(F)ccc3F)c(NC[Si](C)(C)C)n2n1` [Example 18] registered a chromatographic logP of 3.4.

`CC(Nc1c(-c2ncncc2F)c(Cl)nc2nc(C3CC3)nn12)[Si](C)(C)C` (stereo not drawn) [Example 19] displayed a logP of 2.99.

For the compound `C[Si](C)(C)CNc1c(-c2ccccc2Cl)c(Cl)nc2nc(C3CC3)nn12` [Example 20], the log partition coefficient (logP) amounted to 4.23.

Consider `CC(Nc1c(-c2ccccc2Cl)c(Cl)nc2nc(C3CC3)nn12)[Si](C)(C)C` (stereo not drawn) [Example 21], for which the logP is 4.66.

Take `C[Si](C)(C)CNc1c(-c2ncncc2F)c(Cl)nc2nc(C3CC3)nn12` [Example 22]: the logP was determined as 3.02.

For `CC(Nc1c(-c2ncncc2Cl)c(Cl)nc2ncnn12)[Si](C)(C)C` (stereo not drawn) [Example 23], the log partition coefficient (logP) is recorded as 2.70.

In turn, `C[Si](C)(C)CNc1c(-c2ncncc2Cl)c(Cl)nc2ncnn12` [Example 24] gave a logP of 2.44.

In the case of `CCC(C)c1c(Cl)nc2ncnn2c1NC[Si](C)(C)C` (stereo not drawn) [Example 26, 5-chloro-6-sec-butyl-7-trimethylsilylmethylamino[1,2,4]triazolo[1,5-a]pyrimidine], the chromatographic logP was 3.34.

Take `Cc1nc2nc(Cl)c(-c3ncncc3F)c(NC[Si](C)(C)C)n2n1` [Example 27]: the lipophilicity (logP) turned out to be 2.43.

With `Cc1nc2nc(Cl)c(-c3ncncc3F)c(NC(C)[Si](C)(C)C)n2n1` (stereo not drawn) [Example 28], the logP is recorded as 2.73.

In the case of `C[Si](C)(C)CNc1c(-c2cc(F)ccc2F)c(Cl)nc2ncnn12` [Example 39], the chromatographic logP worked out at 3.26.

Compound `CC(Nc1c(-c2cc(F)ccc2F)c(Cl)nc2ncnn12)[Si](C)(C)C` (stereo not drawn) [Example 40] showed a chromatographic logP of 3.57.

In turn, `C[Si](C)(C)CNc1c(-c2ncncc2F)c(Cl)nc2ncnn12` [Example 41] came in with a logP of 2.28.

Consider `CC(Nc1c(-c2ncncc2F)c(Cl)nc2ncnn12)[Si](C)(C)C` (stereo not drawn) [Example 42], for which the logP was 2.57.
